Measurements reported in ChEMBL document CHEMBL3217609, “Discovery and characterization of novel potent PARP-1 inhibitors endowed with neuroprotective properties: From TIQ-A to [sequence]” (Medchemcomm, 2011).

Key:
[1] = molecular target: T1, Poly [ADP-ribose] polymerase 1 (Homo sapiens, UniProt P09874); test: Inhibition of human PARP1 in HEK293 cells assessed as prevention of in MNNG-induced ATP depletion; assay type: cell-based
[2] = test system: Cortical neurone; test: Neuroprotective activity in mouse mixed cortical cells assessed as reduction in oxygen-glucose deprivation-induced LDH release; assay type: functional, cell-based
[3] = Clearance in rat hepatocytes assessed per 10^6 cells; assay type: ADME, cell-based, Hepatocyte; conditions: read-out: CLH
[4] = Clearance in human hepatocytes assessed per 10^6 cells; assay type: ADME, cell-based, Hepatocyte; conditions: read-out: CLH
[5] = test system: Rattus norvegicus; test: Clearance in Sprague-Dawley rat at 10 mg/kg, iv; assay type: ADME, organism-based; design: dose 10 mg/kg, route intravenous; conditions: in vivo
[6] = Volume of distribution in Sprague-Dawley rat at 10 mg/kg, iv; assay type: ADME, organism-based; design: dose 10 mg/kg, route intravenous; conditions: in vivo
[7] = AUC (0 to infinity) in Sprague-Dawley rat at 10 mg/kg, iv; assay type: ADME, organism-based; design: time infinity, dose 10 mg/kg, route intravenous; conditions: plasma
[8] = Half life in Sprague-Dawley rat at 10 mg/kg, iv; assay type: ADME, organism-based; design: dose 10 mg/kg, route intravenous; conditions: in vivo
[9] = Ratio of drug level in brain to plasma in Sprague-Dawley rat at 10 mg/kg, iv; assay type: ADME, organism-based; design: dose 10 mg/kg, route intravenous; conditions: read-out: BPR
[10] = Cmax in Sprague-Dawley rat brain at 10 mg/kg, iv; assay type: ADME, organism-based; design: dose 10 mg/kg, route intravenous
[11] = Fraction unbound in Sprague-Dawley rat brain at 10 mg/kg, iv; assay type: ADME, organism-based; design: dose 10 mg/kg, route intravenous
[12] = test system: Brain; test: Free drug level in Sprague-Dawley rat brain at 10 mg/kg, iv; assay type: ADME, organism-based; design: dose 10 mg/kg, route intravenous; conditions: in vivo
[13] = molecular target: hERG (KCNH2) (Homo sapiens, UniProt Q12809); test: Inhibition of human ERG at 10 uM
hERG (KCNH2), sequence (Q12809 whole entry): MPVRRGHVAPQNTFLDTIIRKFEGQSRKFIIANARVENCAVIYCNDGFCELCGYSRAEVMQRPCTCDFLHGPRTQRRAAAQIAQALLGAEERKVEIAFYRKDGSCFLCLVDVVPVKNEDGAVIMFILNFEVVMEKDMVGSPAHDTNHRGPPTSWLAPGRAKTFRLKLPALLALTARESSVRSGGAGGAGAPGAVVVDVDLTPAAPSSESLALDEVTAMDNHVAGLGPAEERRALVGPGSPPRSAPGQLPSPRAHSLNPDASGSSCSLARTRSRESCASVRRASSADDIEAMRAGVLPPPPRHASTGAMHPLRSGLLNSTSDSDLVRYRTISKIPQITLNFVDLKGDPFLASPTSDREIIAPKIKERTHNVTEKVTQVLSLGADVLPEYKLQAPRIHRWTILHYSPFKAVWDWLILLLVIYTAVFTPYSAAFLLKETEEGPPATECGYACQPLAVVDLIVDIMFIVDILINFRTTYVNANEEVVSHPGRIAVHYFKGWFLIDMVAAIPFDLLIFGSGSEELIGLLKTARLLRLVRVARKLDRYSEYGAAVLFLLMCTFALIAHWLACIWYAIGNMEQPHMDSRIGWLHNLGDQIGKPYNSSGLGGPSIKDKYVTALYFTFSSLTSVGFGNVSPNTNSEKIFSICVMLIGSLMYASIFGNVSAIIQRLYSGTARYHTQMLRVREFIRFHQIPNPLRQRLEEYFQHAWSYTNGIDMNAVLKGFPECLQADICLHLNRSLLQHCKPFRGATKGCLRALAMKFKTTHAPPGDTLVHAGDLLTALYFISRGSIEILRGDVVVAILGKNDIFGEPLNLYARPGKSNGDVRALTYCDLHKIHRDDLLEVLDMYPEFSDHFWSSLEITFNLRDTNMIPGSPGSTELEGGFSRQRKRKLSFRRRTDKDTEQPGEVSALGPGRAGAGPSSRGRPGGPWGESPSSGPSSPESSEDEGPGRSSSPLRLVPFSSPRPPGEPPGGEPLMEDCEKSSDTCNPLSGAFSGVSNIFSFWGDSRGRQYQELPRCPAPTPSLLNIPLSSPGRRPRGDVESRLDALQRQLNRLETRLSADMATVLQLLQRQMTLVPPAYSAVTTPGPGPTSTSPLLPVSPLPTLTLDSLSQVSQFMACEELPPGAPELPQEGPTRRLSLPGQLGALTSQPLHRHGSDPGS

[14] = molecular target: T1, Poly [ADP-ribose] polymerase 1; test: Inhibition of human recombinant PARP1 by fluorescence based multiwell assay
[15] = molecular target: Poly [ADP-ribose] polymerase 2 (Mus musculus, UniProt O88554); test: Inhibition of mouse recombinant PARP2 assessed as radioactivity incorporated from [adenine-2,8-3H]NAD into proteins by liquid scintillation spectrometry
Poly [ADP-ribose] polymerase 2, sequence (O88554 whole entry): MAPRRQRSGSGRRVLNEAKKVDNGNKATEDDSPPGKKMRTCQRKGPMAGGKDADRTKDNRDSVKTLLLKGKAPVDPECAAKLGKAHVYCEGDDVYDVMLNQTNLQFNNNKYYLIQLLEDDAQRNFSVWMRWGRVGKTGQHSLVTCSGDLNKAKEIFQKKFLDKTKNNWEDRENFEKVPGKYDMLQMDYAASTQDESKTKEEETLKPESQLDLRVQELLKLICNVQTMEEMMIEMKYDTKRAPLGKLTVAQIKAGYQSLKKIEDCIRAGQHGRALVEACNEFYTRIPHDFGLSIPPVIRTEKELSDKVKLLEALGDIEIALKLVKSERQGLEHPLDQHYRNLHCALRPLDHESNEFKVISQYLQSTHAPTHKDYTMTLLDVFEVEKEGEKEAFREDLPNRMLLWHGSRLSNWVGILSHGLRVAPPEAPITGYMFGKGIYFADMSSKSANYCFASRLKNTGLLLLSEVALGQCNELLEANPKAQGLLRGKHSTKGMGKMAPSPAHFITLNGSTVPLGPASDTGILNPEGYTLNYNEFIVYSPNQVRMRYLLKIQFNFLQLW

[16] = molecular target: T2, Poly [ADP-ribose] polymerase tankyrase-1 (Homo sapiens, UniProt O95271); test: Inhibition of tankyrase-1 function in human HeLa cells; assay type: cell-based
T2 sequence (O95271 whole entry): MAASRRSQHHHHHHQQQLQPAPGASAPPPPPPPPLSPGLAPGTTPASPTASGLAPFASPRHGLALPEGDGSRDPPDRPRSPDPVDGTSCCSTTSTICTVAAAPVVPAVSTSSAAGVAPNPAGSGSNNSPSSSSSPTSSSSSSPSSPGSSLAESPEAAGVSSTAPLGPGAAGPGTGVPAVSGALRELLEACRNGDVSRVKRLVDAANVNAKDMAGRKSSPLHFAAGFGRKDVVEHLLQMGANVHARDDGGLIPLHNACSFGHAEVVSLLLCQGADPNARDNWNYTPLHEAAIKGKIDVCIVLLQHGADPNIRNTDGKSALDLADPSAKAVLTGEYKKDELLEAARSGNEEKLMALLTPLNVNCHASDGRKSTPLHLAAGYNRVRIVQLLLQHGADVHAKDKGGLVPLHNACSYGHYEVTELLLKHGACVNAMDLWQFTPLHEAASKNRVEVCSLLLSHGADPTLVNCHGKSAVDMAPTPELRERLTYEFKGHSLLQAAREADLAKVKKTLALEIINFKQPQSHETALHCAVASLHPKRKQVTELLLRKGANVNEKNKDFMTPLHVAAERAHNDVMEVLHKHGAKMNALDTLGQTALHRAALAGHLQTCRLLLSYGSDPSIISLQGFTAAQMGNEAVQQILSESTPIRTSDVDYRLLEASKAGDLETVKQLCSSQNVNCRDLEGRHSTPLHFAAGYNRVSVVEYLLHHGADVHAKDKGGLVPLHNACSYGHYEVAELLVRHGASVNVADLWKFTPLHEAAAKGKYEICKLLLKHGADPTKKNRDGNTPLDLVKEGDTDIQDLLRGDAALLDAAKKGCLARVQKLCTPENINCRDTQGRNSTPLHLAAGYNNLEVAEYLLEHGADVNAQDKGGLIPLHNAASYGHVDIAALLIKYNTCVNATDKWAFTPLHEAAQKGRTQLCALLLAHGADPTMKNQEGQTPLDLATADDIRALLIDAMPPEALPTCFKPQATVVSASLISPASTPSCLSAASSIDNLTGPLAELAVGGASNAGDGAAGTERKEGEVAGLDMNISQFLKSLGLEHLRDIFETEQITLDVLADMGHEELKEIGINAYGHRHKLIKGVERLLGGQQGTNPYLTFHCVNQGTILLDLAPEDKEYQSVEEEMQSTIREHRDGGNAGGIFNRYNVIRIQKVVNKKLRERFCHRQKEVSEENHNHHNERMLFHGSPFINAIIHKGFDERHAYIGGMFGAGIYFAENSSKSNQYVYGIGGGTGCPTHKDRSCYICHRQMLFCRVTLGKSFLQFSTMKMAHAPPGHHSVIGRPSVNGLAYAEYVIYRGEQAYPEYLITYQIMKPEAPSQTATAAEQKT

[17] = Kinetic aqueous solubility of the compound at pH 7.4 at 23 degC; assay type: physicochemical; conditions: buffer, read-out: Kinetic_solubility
[18] = test system: Rattus norvegicus; test: Neuroprotective activity in transient middle cerebral artery occlusion Sprague-Dawley rat model assessed as reduction in brain infarct volume at 0.1 mg/kg, ip 3 times, starting 4 hrs after occlusion relative to vehicle treated control; assay type: functional; conditions: route intraperitoneal
[19] = test system: Rattus norvegicus; test: Neuroprotective activity in transient middle cerebral artery occlusion Sprague-Dawley rat model assessed as reduction in brain infarct volume at 1 mg/kg, ip 3 times, starting 4 hrs after occlusion relative to vehicle treated control; assay type: functional; conditions: route intraperitoneal
[20] = test system: Rattus norvegicus; test: Neuroprotective activity in transient middle cerebral artery occlusion Sprague-Dawley rat model assessed as reduction in brain infarct volume at 10 mg/kg, ip 3 times, starting 4 hrs after occlusion relative to vehicle treated control; assay type: functional; conditions: route intraperitoneal
[21] = test system: Rattus norvegicus; test: Neuroprotective activity in permanent middle cerebral artery occlusion Sprague-Dawley rat model assessed as reduction in brain infarct volume at 1 mg/kg, iv 3 times at 30 mins, 3.5 hrs and 6 hrs after occlusion relative to vehicle treated control; assay type: functional
[22] = Permeability of the compound by PAMPA; assay type: physicochemical; conditions: read-out: permeability
[23] = molecular target: Cytochrome P450 2D6 (Homo sapiens, UniProt P10635); test: Inhibition of CYP2D6 (unknown origin); assay type: ADME
Cytochrome P450 2D6, sequence (P10635 whole entry): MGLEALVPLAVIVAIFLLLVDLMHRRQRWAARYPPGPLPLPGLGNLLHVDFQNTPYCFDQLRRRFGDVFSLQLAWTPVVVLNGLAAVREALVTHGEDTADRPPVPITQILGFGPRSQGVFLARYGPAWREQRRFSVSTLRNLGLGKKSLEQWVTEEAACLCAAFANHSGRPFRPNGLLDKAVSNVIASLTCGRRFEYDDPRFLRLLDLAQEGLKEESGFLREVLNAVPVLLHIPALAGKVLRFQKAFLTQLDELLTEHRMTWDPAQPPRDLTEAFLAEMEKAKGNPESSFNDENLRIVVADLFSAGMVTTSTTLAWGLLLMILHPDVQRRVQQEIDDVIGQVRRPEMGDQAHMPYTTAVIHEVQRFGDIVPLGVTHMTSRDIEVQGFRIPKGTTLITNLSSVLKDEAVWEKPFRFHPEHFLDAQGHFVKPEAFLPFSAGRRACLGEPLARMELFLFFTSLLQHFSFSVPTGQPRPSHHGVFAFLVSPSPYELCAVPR

[24] = Half life in rat liver microsomes; assay type: ADME
[25] = Half life in human liver microsomes; assay type: ADME

T1 sequence (P09874 whole entry): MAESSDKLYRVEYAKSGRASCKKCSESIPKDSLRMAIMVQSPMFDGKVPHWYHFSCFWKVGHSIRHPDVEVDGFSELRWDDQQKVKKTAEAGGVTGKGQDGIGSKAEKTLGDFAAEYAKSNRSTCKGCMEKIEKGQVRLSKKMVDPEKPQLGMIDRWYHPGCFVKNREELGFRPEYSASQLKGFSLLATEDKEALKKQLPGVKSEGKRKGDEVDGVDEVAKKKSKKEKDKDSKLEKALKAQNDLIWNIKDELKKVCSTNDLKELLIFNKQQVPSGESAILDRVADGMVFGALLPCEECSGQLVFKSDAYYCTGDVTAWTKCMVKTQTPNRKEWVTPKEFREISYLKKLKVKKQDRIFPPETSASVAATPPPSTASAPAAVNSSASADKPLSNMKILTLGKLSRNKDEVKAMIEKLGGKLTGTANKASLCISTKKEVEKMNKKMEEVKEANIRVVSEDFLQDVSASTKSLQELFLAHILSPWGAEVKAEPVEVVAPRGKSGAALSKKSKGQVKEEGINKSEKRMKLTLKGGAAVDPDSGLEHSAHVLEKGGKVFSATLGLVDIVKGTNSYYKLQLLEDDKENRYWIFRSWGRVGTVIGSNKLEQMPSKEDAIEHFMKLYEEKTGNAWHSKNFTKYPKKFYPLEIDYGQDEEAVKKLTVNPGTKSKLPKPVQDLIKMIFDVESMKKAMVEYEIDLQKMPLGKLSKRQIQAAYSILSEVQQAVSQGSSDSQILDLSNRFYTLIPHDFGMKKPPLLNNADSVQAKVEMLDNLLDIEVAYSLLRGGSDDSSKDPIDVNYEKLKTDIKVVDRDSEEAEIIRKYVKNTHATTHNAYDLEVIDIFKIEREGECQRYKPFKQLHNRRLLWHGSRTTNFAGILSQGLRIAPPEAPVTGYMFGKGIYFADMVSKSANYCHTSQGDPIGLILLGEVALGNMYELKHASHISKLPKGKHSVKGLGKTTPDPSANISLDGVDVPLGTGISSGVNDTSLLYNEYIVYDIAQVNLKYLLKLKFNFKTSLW

**Q.** Which EC50 [1] does the source give for `O=c1[nH]c2ccccc2c2ccccc12` here?
**A.** Its EC50 is 945 nM.

**Q.** And the EC50 [2]?
**A.** Its EC50 is 2370 nM.

**Q.** What does the source list for `Br.CN(C)Cc1cc2c([nH]c(=O)c3cccc(O)c32)s1`?
**A.** hepatocyte CLint [3]: 26.4 µL/min/1e6 cells; hepatocyte CLint [4]: 22.2 µL/min/1e6 cells; clearance [5]: 69 mL/min/kg; Vd [6]: 2.1 L/kg; AUC(0-inf) [7]: 1680 ng·h/mL; half-life [8]: 48 min; Kp [9]: 0.26; Cmax [10]: 678 nM; fraction unbound [11]: 0.13; Drug uptake(free) [12]: 87 nM; inhibition at 10 µM [13]: 14%; IC50 [14]: 29 nM; IC50 [15]: 38 nM; IC50 [16]: > 100000 nM; EC50 [1]: 14 nM; solubility kinetic [17]: 70 µg/mL; EC50 [2]: 300 nM; inhibition in vivo at 0.1 mg/kg [18]: 17.5%; inhibition in vivo at 1 mg/kg [19]: 55%; inhibition in vivo at 10 mg/kg [20]: 62%; inhibition in vivo at 1 mg/kg [21]: 42%; Papp [22]: 4.6 ×10⁻⁶ cm/s; IC50 [23]: 170000 nM; half-life [24]: 3 min; half-life [25]: 30 min

**Q.** Which IC50 [14] does the source give for `O=c1[nH]c2sccc2c2ccccc12` here?
**A.** The IC50 was 900 nM.

**Q.** And the IC50 [15]?
**A.** Its IC50 is 600 nM.

**Q.** And the solubility kinetic [17]?
**A.** The solubility kinetic was < 100 µg/mL.

**Q.** For `CN(C)Cc1cc2c([nH]c(=O)c3ccccc32)s1`, which IC50 [14] is on record?
**A.** The IC50 was 180 nM.

**Q.** And the IC50 [15]?
**A.** The IC50 was 300 nM.

**Q.** And the IC50 [16]?
**A.** The IC50 was > 100000 nM.
